In assay [1] the target is PIKfyve (Homo sapiens (Human), UniProt Q9Y2I7). Description: PIKfyve EEA1 Assay (endosomal vesicle enlargement, high content imaging in U2OS cells). Particulars: 3 hours of treatment, activity relative to maximal APY0201 activity. The class given is cell-based. The method, then: PIKfyve EEA1 Assay. Genetic or pharmacological disruption of PIKfyve activity results in enlargement of endosomal vesicles. This enlargement was utilized as a surrogate readout of PIKFyve inhibition for routine triage of PIKfyve inhibitors. U2OS cells grown in 96-well assay plates were treated with compound diluted in DMEM media containing 10% fetal bovine serum. After 3 hours of treatment, cells were fixed with paraformaldehyde, permeabilized with 0.2% Triton-X in phosphate buffered saline and stained against EEA1. During the secondary antibody staining, cells were also stained with CellMask™ Deep Red and Hoechst to detect cytoplasms and nuclei respectively. Endosomal structures were visualized using a high content imager at 40× magnification. Images were analyzed using a linear classifier algorithm integrating EEA1 spot size, intensity and texture trained on images of cells treated with the potent reference compound APY0201. Compound activity was calculated by subtracting the DMSO signal and calculating percentage activity relative to maximal APY0201 activity. IC50 values were then calculated from concentration versus percent inhibition data by logistic regression.
Sequence of PIKfyve (Q9Y2I7 whole entry): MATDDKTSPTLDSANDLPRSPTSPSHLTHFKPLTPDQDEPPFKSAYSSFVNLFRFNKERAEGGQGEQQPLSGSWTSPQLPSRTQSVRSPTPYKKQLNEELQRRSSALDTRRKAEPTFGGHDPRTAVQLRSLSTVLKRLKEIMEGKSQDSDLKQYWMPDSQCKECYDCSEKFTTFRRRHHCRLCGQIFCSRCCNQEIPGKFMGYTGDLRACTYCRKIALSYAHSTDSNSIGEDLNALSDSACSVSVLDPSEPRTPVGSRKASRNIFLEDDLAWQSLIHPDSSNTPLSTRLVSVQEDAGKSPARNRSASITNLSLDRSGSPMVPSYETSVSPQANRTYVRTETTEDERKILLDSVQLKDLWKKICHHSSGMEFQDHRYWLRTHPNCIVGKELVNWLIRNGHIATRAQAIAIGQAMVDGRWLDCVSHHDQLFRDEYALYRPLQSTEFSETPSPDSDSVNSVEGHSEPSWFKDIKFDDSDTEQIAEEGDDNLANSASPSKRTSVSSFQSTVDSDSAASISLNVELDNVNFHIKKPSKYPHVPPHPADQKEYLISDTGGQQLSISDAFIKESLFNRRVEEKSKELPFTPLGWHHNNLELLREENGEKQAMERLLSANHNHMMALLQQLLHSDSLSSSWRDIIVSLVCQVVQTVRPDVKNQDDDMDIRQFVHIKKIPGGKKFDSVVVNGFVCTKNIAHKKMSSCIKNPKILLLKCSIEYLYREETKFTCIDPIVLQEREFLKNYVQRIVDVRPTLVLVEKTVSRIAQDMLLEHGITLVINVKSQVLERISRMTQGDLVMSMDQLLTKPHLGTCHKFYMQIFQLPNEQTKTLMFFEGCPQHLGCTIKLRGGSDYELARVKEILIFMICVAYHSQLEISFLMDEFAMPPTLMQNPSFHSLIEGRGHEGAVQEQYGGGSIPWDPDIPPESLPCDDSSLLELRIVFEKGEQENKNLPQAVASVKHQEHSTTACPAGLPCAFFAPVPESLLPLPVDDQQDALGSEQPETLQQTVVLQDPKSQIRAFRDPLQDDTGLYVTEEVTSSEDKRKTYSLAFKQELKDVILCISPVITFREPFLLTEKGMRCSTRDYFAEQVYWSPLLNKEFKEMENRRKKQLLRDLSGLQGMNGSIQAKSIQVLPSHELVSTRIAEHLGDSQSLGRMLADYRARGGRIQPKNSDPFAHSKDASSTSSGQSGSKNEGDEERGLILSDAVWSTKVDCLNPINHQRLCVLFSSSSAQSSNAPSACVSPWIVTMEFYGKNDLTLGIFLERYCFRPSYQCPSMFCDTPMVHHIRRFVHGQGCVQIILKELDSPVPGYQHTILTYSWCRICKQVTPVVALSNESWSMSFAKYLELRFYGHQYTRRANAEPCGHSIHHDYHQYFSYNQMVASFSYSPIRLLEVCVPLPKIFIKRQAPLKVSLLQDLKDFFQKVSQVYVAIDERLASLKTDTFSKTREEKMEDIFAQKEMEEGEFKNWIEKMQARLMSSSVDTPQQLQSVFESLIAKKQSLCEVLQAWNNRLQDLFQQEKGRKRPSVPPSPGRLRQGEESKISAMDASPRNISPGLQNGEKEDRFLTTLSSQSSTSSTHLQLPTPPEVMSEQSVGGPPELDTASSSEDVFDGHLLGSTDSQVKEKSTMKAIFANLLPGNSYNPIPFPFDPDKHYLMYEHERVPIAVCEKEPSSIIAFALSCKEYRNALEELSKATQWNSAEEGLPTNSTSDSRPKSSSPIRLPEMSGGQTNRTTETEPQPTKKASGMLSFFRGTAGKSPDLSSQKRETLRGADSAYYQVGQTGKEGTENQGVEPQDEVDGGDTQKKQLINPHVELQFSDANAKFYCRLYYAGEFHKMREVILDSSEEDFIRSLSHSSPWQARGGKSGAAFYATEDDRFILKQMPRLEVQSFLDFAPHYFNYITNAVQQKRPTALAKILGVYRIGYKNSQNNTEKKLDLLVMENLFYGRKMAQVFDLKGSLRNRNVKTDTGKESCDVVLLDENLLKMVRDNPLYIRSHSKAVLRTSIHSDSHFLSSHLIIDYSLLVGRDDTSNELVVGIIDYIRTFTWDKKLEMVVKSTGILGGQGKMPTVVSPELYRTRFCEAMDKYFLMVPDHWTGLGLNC

The target in assay [2] is full-length human PIKFYVE (Homo sapiens (Human), UniProt Q9Y2I7, L932S/Q1183K/Q995L/S1033A/S696N/T998S). The assay can be described thus: PIKfyve Biochemical Assay (ADP-Glo Kinase assay, GST-PIKFYVE). As to conditions: ADP-Glo, 1 hour at room temperature, 10 μM to 3 nM in duplicate; read-out: PIKfyve Biochemistry IC50 (μM)*. Here is the method: PIKfyve Biochemical Assay. The biochemical PIKFyve inhibition assays were run by Cama Biosciences according to proprietary methodology based on the Promega ADP-Glo™ Kinase assay. […] GST-PIKFYVE was purified by using glutathione sepharose chromatography and used in an ADP-Glo™ Kinase assay (Promega). Reactions were set up by adding the test compound solution, substrate solution, ATP solution and kinase solution, each at 4× final concentrations. Reactions were prepared with assay buffer (50 mM MOPS, 1 mM DTT, pH7.2), mixed, and incubated in black 384 well polystyrene plates for 1 hour at room temperature. ADP-Glo™ reagent was then added for 40 minutes, followed by kinase detection reagent for an additional 40 minutes. The kinase activity was evaluated by detecting relative light units on a luminescence plate reader. Samples were run in duplicate from 10 μM to 3 nM. […] IC50 values were calculated from concentration versus percent inhibition curves by fitting to a four-parameter logistic curve.
Sequence of full-length human PIKFYVE (Q9Y2I7 whole entry S696N/L932S/Q995L/T998S/S1033A/Q1183K): as the sequence (Q9Y2I7 whole entry) above, with S696N, L932S, Q995L, T998S, S1033A, Q1183K counted along it
The biochemical PIKFyve inhibition assays were run by Cama Biosciences according to proprietary methodology based on the Promega ADP-Glo™ Kinase assay. […] GST-PIKFYVE was purified by using glutathione sepharose chromatography and used in an ADP-Glo™ Kinase assay (Promega).
Reactions were set up by adding the test compound solution, substrate solution, ATP solution and kinase solution, each at 4× final concentrations. Reactions were prepared with assay buffer (50 mM MOPS, 1 mM DTT, pH7.2), mixed, and incubated in black 384 well polystyrene plates for 1 hour at room temperature. ADP-Glo™ reagent was then added for 40 minutes, followed by kinase detection reagent for an additional 40 minutes. The kinase activity was evaluated by detecting relative light units on a luminescence plate reader. Samples were run in duplicate from 10 uM to 3 nM. […] IC50 values were calculated from concentration vs % inhibition curves by fitting to a four-parameter logistic curve.
(In general: In ADP-Glo the light output rises with the ADP produced.)

The source of these data is patent publication US20250197375A1, “PYRIMIDINES AND METHODS OF THEIR USE” (Kineta, Inc., priority 2021, published 2025).

In general, IC50 refers to the point on the concentration scale where inhibition reaches its midpoint.

Regarding `COc1c(Nc2cccnc2)nc(N2CCOCC2)nc1-c1cncc(-c2ccn(C)n2)c1` [Compound 19, 5-methoxy-6-(5-(1-methyl-1H-pyrazol-3-yl)pyridin-3-yl)-2-morpholino-N-(pyridin-3-yl)pyrimidin-4-amine], the IC50 in assay [1] was 0.1 to 1 µM; in assay [2], 0.01 to 0.1 µM.

As for `COc1c(Nc2ccncc2)nc(N2CCOCC2)nc1-c1cncc(-c2ccn(C)n2)c1` [Compound 7, 5-methoxy-6-(5-(1-methyl-1H-pyrazol-3-yl)pyridin-3-yl)-2-morpholino-N-(pyridin-4-yl)pyrimidin-4-amine], the IC50 in assay [1] was 0.01 to 0.1 µM; in assay [2], under 0.01 µM.

Turning to `COc1c(C(=O)Nc2ccccc2)nc(N2CCOCC2)nc1-c1ccn(-c2ccccc2)n1` [Compound 1, 5-methoxy-2-morpholino-N-phenyl-6-(1-phenyl-1H-pyrazol-3-yl)pyrimidine-4-carboxamide], the IC50 in assay [1] lay in the range of 1 to 10 µM; in assay [2], 0.01 to 0.1 µM.

In the case of `COc1c(Nc2ccncc2)nc(N2CCOCC2)nc1-c1cccc(-c2nn(C)cc2C)c1` [Compound 41], the IC50 in assay [1] lay within 0.1 to 1 µM; in assay [2] it was 0.01 to 0.1 µM.

With `COc1c(Nc2ccncc2)nc(N2CCOCC2)nc1-c1cccc(C(=O)N(C)C)c1` [Compound 11, 3-(5-methoxy-2-morpholino-6-(pyridin-4-ylamino)pyrimidin-4-yl)-N,N-dimethylbenzamide], the IC50 is 1 to 10 µM in assay [1] and 0.01 to 0.1 µM in assay [2].

As to `COc1c(C(=O)NC2CC2)nc(N2CCOCC2)nc1-c1cccc(-c2ccn(C)n2)c1` [Compound 6, N-cyclopropyl-4-methoxy-6-(3-(1-methyl-H-pyrazol-3-yl)phenyl)-2-morpholino pyrimidine-4-carboxamide], the half-maximal inhibitory concentration (IC50) in assay [1] lay in the range of 1 to 10 µM; in assay [2], 0.01 to 0.1 µM.

`CN(C)C(=O)c1c(Nc2ccncc2)nc(N2CCOCC2)nc1-c1cccc(-n2cccn2)c1` [Compound 33]: the concentration for half-maximal inhibition (IC50) was 0.1 to 1 µM in assay [1] and 0.01 to 0.1 µM in assay [2].

For `COc1c(Nc2ccncc2)nc(N2CCOCC2)nc1-c1cccc(-c2ncccn2)c1` [Compound 16, 5-methoxy-2-morpholino-N-(pyridin-4-yl)-6-(3-(pyrimidin-2-yl)phenyl)pyrimidin-4-amine], the concentration for half-maximal inhibition (IC50) in assay [1] is 0.01 to 0.1 µM; in assay [2] it was under 0.01 µM.

`COc1c(NCc2cccnc2)nc(-c2ccncc2)nc1-c1cccc(-c2ccn(C)n2)c1` [Compound 62, 5-methoxy-6-(3-(1-methyl-1H-pyrazol-3-yl)phenyl)-N-(pyridin-3-ylmethyl)-2-(pyridin-4-yl)pyrimidin-4-amine]: the IC50 was 0.1 to 1 µM in assay [1] and under 0.01 µM in assay [2].

Take `Cn1ccc(-c2cccc(-c3nc(N4CCOCC4)nc(Nc4ccncc4)c3-c3ncco3)c2)n1` [Compound 74, 6-[3-(1-methylpyrazol-3-yl)phenyl]-2-morpholino-5-oxazol-2-yl-N-(4-pyridyl)pyrimidin-4-amine]: the IC50 was in the range of 0.1 to 1 µM in assay [1] and 0.01 to 0.1 µM in assay [2].

For the compound `COc1c(-c2cccc(-c3ccn(C)n3)c2)nc(N2CCOCC2)nc1C(O)c1ccncc1` (centres unmarked) [Compound 32], the IC50 in assay [1] lay in the range of 1 to 10 µM; in assay [2], 0.1 to 1 µM.

In the case of `COc1c(Nc2ccncc2)nc(N2CCOCC2)nc1-c1ccnc(-c2ccn(C)n2)c1` [Compound 14, 5-methoxy-6-(2-(1-methyl-H-pyrazol-3-yl)pyridin-4-yl)-2-morpholino-N-(pyridin-4-yl)pyrimidin-4-amine], the half-maximal inhibitory concentration (IC50) in assay [1] is 0.01 to 0.1 µM; in assay [2] it was under 0.01 µM.

For the compound `COc1c(Nc2ccncc2)nc(N2CCOCC2)nc1-c1cccc(-c2cccnn2)c1` [Compound 10, 5-methoxy-2-morpholino-6-(3-(pyridazin-3-yl)phenyl)-N-(pyridin-4-yl)pyrimidin-4-amine], the half-maximal inhibitory concentration (IC50) in assay [1] fell in the range of 0.1 to 1 µM; in assay [2], 0.01 to 0.1 µM.

Turning to `COc1c(-c2ccncc2)nc(N2CCOCC2)nc1-c1cccc(-c2ccn(C)n2)c1` [Compound 30, 4-(5-methoxy-4-(3-(1-methyl-1H-pyrazol-3-yl)phenyl)-6-(pyridin-4-yl)pyrimidin-2-yl)morpholine], the IC50 was 1 to 10 µM in assay [1] and 0.01 to 0.1 µM in assay [2].

For `COc1c(Nc2ccncc2)nc(N2CCCC2=O)nc1-c1cccc(-c2ccn(C)n2)c1` [Compound 44, 1-(5-methoxy-4-(3-(1-methyl-1H-pyrazol-3-yl)phenyl)-6-(pyridin-4-ylamino)pyrimidin-2-yl)pyrrolidin-2-one], the half-maximal inhibitory concentration (IC50) in assay [1] is over 10 µM; in assay [2], 1 to 10 µM.

Turning to `COc1c(Nc2ccncc2)nc(N2CCOCC2)nc1-c1cccc(-n2cccn2)c1` [Compound 8, 6-(3-(1H-pyrazol-1-yl)phenyl)-5-methoxy-2-morpholino-N-(pyridin-4-yl)pyrimidin-4-amine], the IC50 in assay [1] was 0.1 to 1 µM; in assay [2], under 0.01 µM.

In the case of `COc1c(Oc2cccnc2)nc(N2CCOCC2)nc1-n1cc(-c2ccccc2)cn1` [Compound 2, 4-(5-methoxy-4-(4-phenyl-1H-pyrazol-1-yl)-6-(pyridin-3-yloxy)pyrimidin-2-yl) morpholine], the half-maximal inhibitory concentration (IC50) in assay [1] was 1 to 10 µM; in assay [2], 0.01 to 0.1 µM.

As for `Cn1c(=O)c2c(Nc3ccncc3)nc(N3CCOCC3)nc2c2cc(-n3cccn3)ccc21` [Compound 65, 6-methyl-2-morpholino-9-pyrazol-1-yl-4-(4-pyridylamino)pyrimido[5,4-c]quinolin-5-one], the IC50 in assay [1] fell in the range of 1 to 10 µM; in assay [2], 0.01 to 0.1 µM.

Consider `COc1ccc(-c2nc(N3CCOCC3)nc(Nc3ccncc3)c2OC)cc1OC` [Compound 13, 6-(3,4-dimethoxyphenyl)-5-methoxy-2-morpholino-N-(pyridin-4-yl)pyrimidin-4-amine], for which the IC50 was 0.1 to 1 µM in assay [1] and under 0.01 µM in assay [2].

Turning to `COc1c(Nc2ccncc2)nc(N2CCC(O)CC2)nc1-c1cccc(-c2ccn(C)n2)c1` [Compound 46, 1-(5-methoxy-4-(3-(1-methyl-1H-pyrazol-3-yl)phenyl)-6-(pyridin-4-ylamino)pyrimidin-2-yl)piperidin-4-ol], the figures for the IC50 in assay [1] and in assay [2] were over 10 µM and 0.1 to 1 µM, respectively.

As for `COc1c(Nc2ccncc2)nc(-c2ccncc2)nc1-c1ccnc(-c2ccn(C)n2)c1` [Compound 39, 5-methoxy-6-(2-(1-methyl-1H-pyrazol-3-yl)pyridin-4-yl)-N, 2-di(pyridin-4-yl)pyrimidin-4-amine], the IC50 in assay [1] is 0.01 to 0.1 µM; in assay [2] it was under 0.01 µM.

Regarding `COc1c(Nc2ccncc2)nc(N2CCOCC2)nc1-c1cccc(N2CCN(C)C(=O)C2)c1` [Compound 15, 4-(3-(5-methoxy-2-morpholino-6-(pyridin-4-ylamino)pyrimidin-4-yl)phenyl)-1-methylpiperazin-2-one], the IC50 lay in the range of 0.1 to 1 µM in assay [1] and 0.01 to 0.1 µM in assay [2].

The compound `COc1c(Nc2cccnc2)nc(N2CCOCC2)nc1-c1cccc(N2CCCC2=O)c1` [Compound 29, 1-(3-(5-methoxy-2-morpholino-6-(pyridin-3-ylamino)pyrimidin-4-yl)phenyl)pyrrolidin-2-one] showed a 50% inhibitory concentration (IC50) in assay [1] of 1 to 10 µM.

On to `OCc1c(Nc2cccnc2)nc(N2CCOCC2)nc1-c1cccc(-n2cccn2)c1` [Compound 70, [2-morpholino-4-(3-pyrazol-1-ylphenyl)-6-(3-pyridylamino)pyrimidin-6-yl]methanol], for which the concentration for half-maximal inhibition (IC50) in assay [1] lay in the range of 1 to 10 µM.

`Cn1ccc(-c2cccc(-c3nc(N4CCOCC4)nc(Nc4cccnc4)c3P(C)(C)=O)c2)n1` [Compound 45, dimethyl(4-(3-(1-methyl-1H-pyrazol-3-yl)phenyl)-2-morpholino-6-(pyridin-3-ylamino)pyrimidin-6-yl)phosphine oxide] had an IC50 in assay [1] of 1 to 10 µM.

In the case of `CN(C)C(=O)c1c(Nc2cccnc2)nc(N2CCOCC2)nc1-c1cccc(-n2cccn2)c1` [Compound 69], in assay [1], the IC50 was 1 to 10 µM.

Take `Cn1ccc(-c2cccc(-c3nc(N4CCOCC4)nc(Nc4ccncc4)c3C(=O)N3CCC3)c2)n1` [Compound 68]: in assay [1], the IC50 is 0.01 to 0.1 µM.

Regarding `COc1c(-c2cccc(-c3ccn(C)n3)c2)nc(N2CCOCC2)nc1-c1cnn(C)c1` [Compound 52, 4-(5-methoxy-4-(3-(1-methyl-1H-pyrazol-3-yl)phenyl)-6-(1-methyl-1H-pyrazol-4-yl)pyrimidin-2-yl)morpholine], the IC50 in assay [1] lay in the range of 1 to 10 µM.
